± gives the expanded uncertainty stated by the source.
test: molar heat capacity at constant pressure; conditions: 307.15 K; 101.33 kPa; Liquid; Large sample (1 g) DSC

molar heat capacity at constant pressure [J/K/mol] | SMILES
245.3 ± 3.8 | CCCOCCO [2-propoxyethanol]
332.8 ± 5.2 | CCCOCCOCCO [2-(2-propoxyethoxy)ethanol]
450.5 ± 7 | COCCOCCOCCOCCO [3,6,9,12-tetraoxatridecanol]
214.3 ± 3.3 | CCOCCO [2-ethoxyethan-1-ol]
425.1 ± 6.6 | CCCCCCOCCOCCO [2-(2-hexyloxyethoxy)ethanol]
304.3 ± 4.7 | CCOCCOCCO [3,6-dioxa-1-octanol]

SMILES | molar heat capacity at constant pressure [J/K/mol]
COCCOCCO [2-(2-methoxyethoxy)ethanol] | 269.8 ± 4.2

same assay, conditions: 309.15 K; 101.33 kPa; Liquid; Large sample (1 g) DSC

molar heat capacity at constant pressure [J/K/mol] | SMILES
246.2 ± 3.8 | CCCOCCO [2-propoxyethanol]
333.6 ± 5.2 | CCCOCCOCCO [2-(2-propoxyethoxy)ethanol]
451 ± 7 | COCCOCCOCCOCCO [3,6,9,12-tetraoxatridecanol]
215 ± 3.3 | CCOCCO [2-ethoxyethan-1-ol]
426 ± 6.6 | CCCCCCOCCOCCO [2-(2-hexyloxyethoxy)ethanol]
304.9 ± 4.7 | CCOCCOCCO [3,6-dioxa-1-octanol]

SMILES | molar heat capacity at constant pressure [J/K/mol]
COCCOCCO [2-(2-methoxyethoxy)ethanol] | 270.4 ± 4.2

same assay, conditions: 311.15 K; 101.33 kPa; Liquid; Large sample (1 g) DSC

molar heat capacity at constant pressure [J/K/mol] | SMILES
247.1 ± 3.8 | CCCOCCO [2-propoxyethanol]
334.4 ± 5.2 | CCCOCCOCCO [2-(2-propoxyethoxy)ethanol]
451.5 ± 7 | COCCOCCOCCOCCO [3,6,9,12-tetraoxatridecanol]
215.7 ± 3.3 | CCOCCO [2-ethoxyethan-1-ol]
427 ± 6.6 | CCCCCCOCCOCCO [2-(2-hexyloxyethoxy)ethanol]
305.5 ± 4.7 | CCOCCOCCO [3,6-dioxa-1-octanol]

SMILES | molar heat capacity at constant pressure [J/K/mol]
COCCOCCO [2-(2-methoxyethoxy)ethanol] | 271 ± 4.2

same assay, conditions: 313.15 K; 101.33 kPa; Liquid; Large sample (1 g) DSC

molar heat capacity at constant pressure [J/K/mol] | SMILES
248 ± 3.8 | CCCOCCO [2-propoxyethanol]
335.2 ± 5.2 | CCCOCCOCCO [2-(2-propoxyethoxy)ethanol]
452 ± 7 | COCCOCCOCCOCCO [3,6,9,12-tetraoxatridecanol]
216.5 ± 3.4 | CCOCCO [2-ethoxyethan-1-ol]
428 ± 6.6 | CCCCCCOCCOCCO [2-(2-hexyloxyethoxy)ethanol]
306.2 ± 4.7 | CCOCCOCCO [3,6-dioxa-1-octanol]

SMILES | molar heat capacity at constant pressure [J/K/mol]
COCCOCCO [2-(2-methoxyethoxy)ethanol] | 271.6 ± 4.2

same assay, conditions: 315.15 K; 101.33 kPa; Liquid; Large sample (1 g) DSC

molar heat capacity at constant pressure [J/K/mol] | SMILES
248.9 ± 3.9 | CCCOCCO [2-propoxyethanol]
336 ± 5.2 | CCCOCCOCCO [2-(2-propoxyethoxy)ethanol]
452.5 ± 7 | COCCOCCOCCOCCO [3,6,9,12-tetraoxatridecanol]
217.2 ± 3.4 | CCOCCO [2-ethoxyethan-1-ol]
428.9 ± 6.6 | CCCCCCOCCOCCO [2-(2-hexyloxyethoxy)ethanol]
306.9 ± 4.8 | CCOCCOCCO [3,6-dioxa-1-octanol]

SMILES | molar heat capacity at constant pressure [J/K/mol]
COCCOCCO [2-(2-methoxyethoxy)ethanol] | 272.2 ± 4.2

same assay, conditions: 317.15 K; 101.33 kPa; Liquid; Large sample (1 g) DSC

molar heat capacity at constant pressure [J/K/mol] | SMILES
249.8 ± 3.9 | CCCOCCO [2-propoxyethanol]
336.9 ± 5.2 | CCCOCCOCCO [2-(2-propoxyethoxy)ethanol]
453 ± 7 | COCCOCCOCCOCCO [3,6,9,12-tetraoxatridecanol]
218 ± 3.4 | CCOCCO [2-ethoxyethan-1-ol]
429.9 ± 6.7 | CCCCCCOCCOCCO [2-(2-hexyloxyethoxy)ethanol]
307.5 ± 4.8 | CCOCCOCCO [3,6-dioxa-1-octanol]

SMILES | molar heat capacity at constant pressure [J/K/mol]
COCCOCCO [2-(2-methoxyethoxy)ethanol] | 272.8 ± 4.2

same assay, conditions: 319.15 K; 101.33 kPa; Liquid; Large sample (1 g) DSC

molar heat capacity at constant pressure [J/K/mol] | SMILES
250.7 ± 3.9 | CCCOCCO [2-propoxyethanol]
337.7 ± 5.2 | CCCOCCOCCO [2-(2-propoxyethoxy)ethanol]
453.6 ± 7 | COCCOCCOCCOCCO [3,6,9,12-tetraoxatridecanol]
218.7 ± 3.4 | CCOCCO [2-ethoxyethan-1-ol]
430.9 ± 6.7 | CCCCCCOCCOCCO [2-(2-hexyloxyethoxy)ethanol]
308.2 ± 4.8 | CCOCCOCCO [3,6-dioxa-1-octanol]

SMILES | molar heat capacity at constant pressure [J/K/mol]
COCCOCCO [2-(2-methoxyethoxy)ethanol] | 273.4 ± 4.2

same assay, conditions: 321.15 K; 101.33 kPa; Liquid; Large sample (1 g) DSC

molar heat capacity at constant pressure [J/K/mol] | SMILES
251.6 ± 3.9 | CCCOCCO [2-propoxyethanol]
338.5 ± 5.2 | CCCOCCOCCO [2-(2-propoxyethoxy)ethanol]
454.2 ± 7 | COCCOCCOCCOCCO [3,6,9,12-tetraoxatridecanol]
219.5 ± 3.4 | CCOCCO [2-ethoxyethan-1-ol]
431.9 ± 6.7 | CCCCCCOCCOCCO [2-(2-hexyloxyethoxy)ethanol]
309 ± 4.8 | CCOCCOCCO [3,6-dioxa-1-octanol]

SMILES | molar heat capacity at constant pressure [J/K/mol]
COCCOCCO [2-(2-methoxyethoxy)ethanol] | 274 ± 4.2

same assay, conditions: 323.15 K; 101.33 kPa; Liquid; Large sample (1 g) DSC

molar heat capacity at constant pressure [J/K/mol] | SMILES
252.5 ± 3.9 | CCCOCCO [2-propoxyethanol]
339.4 ± 5.3 | CCCOCCOCCO [2-(2-propoxyethoxy)ethanol]
454.8 ± 7 | COCCOCCOCCOCCO [3,6,9,12-tetraoxatridecanol]
220.2 ± 3.4 | CCOCCO [2-ethoxyethan-1-ol]
432.9 ± 6.7 | CCCCCCOCCOCCO [2-(2-hexyloxyethoxy)ethanol]
309.7 ± 4.8 | CCOCCOCCO [3,6-dioxa-1-octanol]

SMILES | molar heat capacity at constant pressure [J/K/mol]
COCCOCCO [2-(2-methoxyethoxy)ethanol] | 274.7 ± 4.3

same assay, conditions: 325.15 K; 101.33 kPa; Liquid; Large sample (1 g) DSC

molar heat capacity at constant pressure [J/K/mol] | SMILES
253.4 ± 3.9 | CCCOCCO [2-propoxyethanol]
340.3 ± 5.3 | CCCOCCOCCO [2-(2-propoxyethoxy)ethanol]
455.4 ± 7.1 | COCCOCCOCCOCCO [3,6,9,12-tetraoxatridecanol]
221 ± 3.4 | CCOCCO [2-ethoxyethan-1-ol]
433.9 ± 6.7 | CCCCCCOCCOCCO [2-(2-hexyloxyethoxy)ethanol]
310.4 ± 4.8 | CCOCCOCCO [3,6-dioxa-1-octanol]

SMILES | molar heat capacity at constant pressure [J/K/mol]
COCCOCCO [2-(2-methoxyethoxy)ethanol] | 275.3 ± 4.3

same assay, conditions: 327.15 K; 101.33 kPa; Liquid; Large sample (1 g) DSC

molar heat capacity at constant pressure [J/K/mol] | SMILES
254.3 ± 3.9 | CCCOCCO [2-propoxyethanol]
341.1 ± 5.3 | CCCOCCOCCO [2-(2-propoxyethoxy)ethanol]
456 ± 7.1 | COCCOCCOCCOCCO [3,6,9,12-tetraoxatridecanol]
221.8 ± 3.4 | CCOCCO [2-ethoxyethan-1-ol]
434.9 ± 6.7 | CCCCCCOCCOCCO [2-(2-hexyloxyethoxy)ethanol]
311.2 ± 4.8 | CCOCCOCCO [3,6-dioxa-1-octanol]

SMILES | molar heat capacity at constant pressure [J/K/mol]
COCCOCCO [2-(2-methoxyethoxy)ethanol] | 276 ± 4.3

same assay, conditions: 329.15 K; 101.33 kPa; Liquid; Large sample (1 g) DSC

molar heat capacity at constant pressure [J/K/mol] | SMILES
255.2 ± 4 | CCCOCCO [2-propoxyethanol]
342 ± 5.3 | CCCOCCOCCO [2-(2-propoxyethoxy)ethanol]
456.6 ± 7.1 | COCCOCCOCCOCCO [3,6,9,12-tetraoxatridecanol]
222.6 ± 3.4 | CCOCCO [2-ethoxyethan-1-ol]
436 ± 6.8 | CCCCCCOCCOCCO [2-(2-hexyloxyethoxy)ethanol]
312 ± 4.8 | CCOCCOCCO [3,6-dioxa-1-octanol]

SMILES | molar heat capacity at constant pressure [J/K/mol]
COCCOCCO [2-(2-methoxyethoxy)ethanol] | 276.6 ± 4.3

same assay, conditions: 331.15 K; 101.33 kPa; Liquid; Large sample (1 g) DSC

molar heat capacity at constant pressure [J/K/mol] | SMILES
256.1 ± 4 | CCCOCCO [2-propoxyethanol]
342.9 ± 5.3 | CCCOCCOCCO [2-(2-propoxyethoxy)ethanol]
457.3 ± 7.1 | COCCOCCOCCOCCO [3,6,9,12-tetraoxatridecanol]
223.3 ± 3.5 | CCOCCO [2-ethoxyethan-1-ol]
437 ± 6.8 | CCCCCCOCCOCCO [2-(2-hexyloxyethoxy)ethanol]
312.8 ± 4.8 | CCOCCOCCO [3,6-dioxa-1-octanol]

SMILES | molar heat capacity at constant pressure [J/K/mol]
COCCOCCO [2-(2-methoxyethoxy)ethanol] | 277.3 ± 4.3

same assay, conditions: 333.15 K; 101.33 kPa; Liquid; Large sample (1 g) DSC

molar heat capacity at constant pressure [J/K/mol] | SMILES
257.1 ± 4 | CCCOCCO [2-propoxyethanol]
343.8 ± 5.3 | CCCOCCOCCO [2-(2-propoxyethoxy)ethanol]
458 ± 7.1 | COCCOCCOCCOCCO [3,6,9,12-tetraoxatridecanol]
224.1 ± 3.5 | CCOCCO [2-ethoxyethan-1-ol]
438 ± 6.8 | CCCCCCOCCOCCO [2-(2-hexyloxyethoxy)ethanol]
313.6 ± 4.9 | CCOCCOCCO [3,6-dioxa-1-octanol]

SMILES | molar heat capacity at constant pressure [J/K/mol]
COCCOCCO [2-(2-methoxyethoxy)ethanol] | 278 ± 4.3

same assay, conditions: 335.15 K; 101.33 kPa; Liquid; Large sample (1 g) DSC

molar heat capacity at constant pressure [J/K/mol] | SMILES
258 ± 4 | CCCOCCO [2-propoxyethanol]
344.7 ± 5.3 | CCCOCCOCCO [2-(2-propoxyethoxy)ethanol]
458.7 ± 7.1 | COCCOCCOCCOCCO [3,6,9,12-tetraoxatridecanol]
224.9 ± 3.5 | CCOCCO [2-ethoxyethan-1-ol]
439.1 ± 6.8 | CCCCCCOCCOCCO [2-(2-hexyloxyethoxy)ethanol]
314.4 ± 4.9 | CCOCCOCCO [3,6-dioxa-1-octanol]

SMILES | molar heat capacity at constant pressure [J/K/mol]
COCCOCCO [2-(2-methoxyethoxy)ethanol] | 278.7 ± 4.3

same assay, conditions: 337.15 K; 101.33 kPa; Liquid; Large sample (1 g) DSC

molar heat capacity at constant pressure [J/K/mol] | SMILES
258.9 ± 4 | CCCOCCO [2-propoxyethanol]
345.6 ± 5.4 | CCCOCCOCCO [2-(2-propoxyethoxy)ethanol]
459.4 ± 7.1 | COCCOCCOCCOCCO [3,6,9,12-tetraoxatridecanol]
225.7 ± 3.5 | CCOCCO [2-ethoxyethan-1-ol]
440.2 ± 6.8 | CCCCCCOCCOCCO [2-(2-hexyloxyethoxy)ethanol]
315.2 ± 4.9 | CCOCCOCCO [3,6-dioxa-1-octanol]

SMILES | molar heat capacity at constant pressure [J/K/mol]
COCCOCCO [2-(2-methoxyethoxy)ethanol] | 279.4 ± 4.3

same assay, conditions: 339.15 K; 101.33 kPa; Liquid; Large sample (1 g) DSC

molar heat capacity at constant pressure [J/K/mol] | SMILES
259.9 ± 4 | CCCOCCO [2-propoxyethanol]
346.5 ± 5.4 | CCCOCCOCCO [2-(2-propoxyethoxy)ethanol]
460.1 ± 7.1 | COCCOCCOCCOCCO [3,6,9,12-tetraoxatridecanol]
226.5 ± 3.5 | CCOCCO [2-ethoxyethan-1-ol]
441.2 ± 6.8 | CCCCCCOCCOCCO [2-(2-hexyloxyethoxy)ethanol]
316.1 ± 4.9 | CCOCCOCCO [3,6-dioxa-1-octanol]

SMILES | molar heat capacity at constant pressure [J/K/mol]
COCCOCCO [2-(2-methoxyethoxy)ethanol] | 280.1 ± 4.3

Source: the NIST ThermoML archive (doi:10.1021/acs.jced.5b00051)
